“Also recorded” adds a separate entry of the source.
What was measured:
[1] = test system: electrically evoked Ca^2+ transients in rat skinned fibers; assay: Electrically evoked Ca2+ transients (EC coupling) in rat skinned skeletal muscle fibers; assay type: cell-based; conditions: field stimulation 1 Hz, 100 nM free Ca2+
From the text: To test the potential impact of these compounds on excitation contraction coupling, we measured voltage-induced Ca^2+ transients in rat skeletal muscle fibers. To do this, we again used mechanically skinned fibers. Because the t-system reseals upon mechanical skinning, bathing the preparation in a K^+-based cytoplasmic solution (with a small amount of Na^+) allows the Na^+-K^+ pump to re-establish the normal membrane potential. EC coupling can be initiated by exciting the preparation with field pulses that generate action potentials in the t-system to trigger Ca^2+ release[52]–[54]. Ca^2+ release is tracked by imaging rhod-2 in the cytoplasm via confocal microscopy in line-scan mode, and quantitatively plotted in Fig. 5 (based on recordings such as shown in Supplementary Fig. 7). A major advantage of using skinned fibers is that known concentrations of RyR modulators can be added to the cytoplasm, as they were added in the “leak” experiments. With this approach, we found 1 and 10 μM myricetin reduced Ca^2+ transient peak amplitude by 12% (P = 0.0046) and 48% (P < 0.0001), respectively (Fig. 5 and Supplementary Fig. 7a). In the case of chloroxine, only addition of 100 μM led to a detectable 14% (P < 0.0001) reduction in the Ca^2+ transient peak amplitude (Fig. 5 and Supplementary Fig. 7b). Therefore, both compounds, have impact on Ca^2+ transients that is markedly lower than their effect on the t-tubule readout of RyR1 [Ca^2+] leak (Figs. 4 and 5).
All experimental methods using rats were approved by The Animal Ethics Committee at The University of Queensland. Five month old Wistar rats (UQ Biological Resources, Brisbane) were euthanized by asphyxiation via CO2 exposure, and the extensor digitorum longus (EDL) were rapidly excised.
Skinned rat fibers were prepared and bathed in a resting physiological solution containing 100 nM Ca^2+, 1 mM Mg^2+, 36 mM Na^+, 126 mM K^+, 1 mM EGTA, 90 mM HEPES, […], 10 mM creatine phosphate and 8 mM ATP (pH 7.4). The Ca^2+ sensitive dye rhod-2 was used to track cytosolic Ca^2+ transients when exposed to electrical stimulation. […]

RyR1 = RyR1 (Sus scrofa, UniProt P16960); assay: FLT-FRET between D-FKBP and A-CaM bound to RyR1 in skeletal SR membranes (HTS and dose-response); assay type: binding, porcine; set-up: RyR1 in skeletal SR membranes, and RyR2 in cardiac SR membranes; from tissue; host or cells: porcine longissimus dorsi muscle (heavy SR vesicles); conditions: 30 nM Ca2+; for Effect on FRET: RyR1 samples, micromolar compound, GSSG or GSH
Procedure: To confer compatibility with current HTS standards in industrial drug discovery facilities, we miniaturized our screening format from the previously established 384-well plates, requiring 50 μL sample per well[19], to 1536-well plates, requiring 5 μL sample per well. The complete 1280-compound library of pharmacologically active compounds (LOPAC) was applied as 5 nL/well in 40 columns of one 1536-well black-wall/black-bottom plate, with the remaining 8 columns loaded with 5 nL/well of DMSO, as no-drug controls. For each run of the screen, three plates were loaded with either (1) unlabeled HSR, or (2) HSR pre-incubated with donor-FKBP (D-FKBP; donor-only sample), or (3) donor-only sample that was additionally incubated with 0.3 μM acceptor-CaM (A-CaM) for 60 min prior to loading on the plate (donor-acceptor sample). This sub-saturating concentration of A-CaM was used to provide a readout that is sensitive to library compounds that may increase or decrease CaM binding affinity to RyR. To promote a homogenous population of RyR1 resembling that associated with myopathies, final assay conditions also included 30 nM Ca^2+ to represent resting (muscle relaxing) Ca^2+, and 5 mM oxidized glutathione (GSSG), which exaggerates the conditions associated with oxidative stress.
We acquired both FLT waveforms and fluorescence spectra, as previously described[19],[33],[34]. As previously observed, Hit effects were greatest following a 2-hour incubation with the library compounds (Supplementary Fig. 1a). As a result, all FRET results shown in Figs. 1 and 2, and Supplementary Fig. 2 are reported from the 2-hour incubation.
Necessary counter-screens to our pathological RyR1 conditions include evaluating compound effects in healthy conditions and on the cardiac isoform, RyR2. Using the same FRET assay as in HTS, we tested the dose response of key Hits from this screen and the previously HTS-identified RyR1 inhibitor, chloroxine, on healthy (5 mM GSH) and pathological (5 mM GSSG) conditions for both RyR1 in skeletal SR membranes, and RyR2 in cardiac SR membranes.
Skeletal HSR and cardiac CSR (0.4 mg/ml) membranes were independently pre-incubated with 60 nM D-FKBP, for 90 min, at 37 °C, in a solution containing 150 mM KCl, 5 mM GSH, 0.1 mg/mL BSA, 1 µg/mL Aprotinin/Leupeptin, 1 mM DTT and 20 mM PIPES (pH 7.0). To remove unbound D-FKBP, the SR membranes were spun down at 110,000 × g for 20 min, and then resuspended to 1 mg/mL (skeletal HSR) and 2 mg/mL (cardiac CSR) in binding buffer consisting of 150 mM KCl, 5 mM GSSG, 0.1 mg/mL BSA, 1μg/mL Aprotinin/Leupeptin and 20 mM PIPES, pH 7.0. These samples were then incubated with indicated [A-CaM] for 30 min at 22 °C in binding buffer containing 0.065 mM CaCl2 to give 30 nM free Ca^2+ in the presence of 1 mM EGTA (calculated by MaxChelator). This labeled SR sample was applied to the assay plates in 5 μL aliquots using a Multidrop™ Combi reagent dispenser (Thermo Scientific) with a standard-tube. An additional set of the assay plates were loaded with skeletal HSR or cardiac CSR labeled with only D-FKBP (no added A-CaM).
FLT measurements were conducted in a top-read FLT-PR designed and built by Fluorescence Innovations, Inc[33]. AF488 donor fluorescence was excited with a 473-nm microchip laser from Concepts Research Corporation (Belgium, WI), and emission was acquired with 490-nm long-pass and 517/20-nm band-pass filters (Semrock, Rochester, NY).
FLT waveforms for each well were fit based on a one-exponential decay function using least-squares minimization global-analysis software (Fluorescence Innovations, Inc.), as previously described[19],[33]. FRET efficiency (E) was determined as the fractional decrease of donor FLT (τD), due to the presence of acceptor fluorophore (τDA), using the following equation:1 E=1−τDA/τD, […]

RyR1, sequence (P16960 whole entry): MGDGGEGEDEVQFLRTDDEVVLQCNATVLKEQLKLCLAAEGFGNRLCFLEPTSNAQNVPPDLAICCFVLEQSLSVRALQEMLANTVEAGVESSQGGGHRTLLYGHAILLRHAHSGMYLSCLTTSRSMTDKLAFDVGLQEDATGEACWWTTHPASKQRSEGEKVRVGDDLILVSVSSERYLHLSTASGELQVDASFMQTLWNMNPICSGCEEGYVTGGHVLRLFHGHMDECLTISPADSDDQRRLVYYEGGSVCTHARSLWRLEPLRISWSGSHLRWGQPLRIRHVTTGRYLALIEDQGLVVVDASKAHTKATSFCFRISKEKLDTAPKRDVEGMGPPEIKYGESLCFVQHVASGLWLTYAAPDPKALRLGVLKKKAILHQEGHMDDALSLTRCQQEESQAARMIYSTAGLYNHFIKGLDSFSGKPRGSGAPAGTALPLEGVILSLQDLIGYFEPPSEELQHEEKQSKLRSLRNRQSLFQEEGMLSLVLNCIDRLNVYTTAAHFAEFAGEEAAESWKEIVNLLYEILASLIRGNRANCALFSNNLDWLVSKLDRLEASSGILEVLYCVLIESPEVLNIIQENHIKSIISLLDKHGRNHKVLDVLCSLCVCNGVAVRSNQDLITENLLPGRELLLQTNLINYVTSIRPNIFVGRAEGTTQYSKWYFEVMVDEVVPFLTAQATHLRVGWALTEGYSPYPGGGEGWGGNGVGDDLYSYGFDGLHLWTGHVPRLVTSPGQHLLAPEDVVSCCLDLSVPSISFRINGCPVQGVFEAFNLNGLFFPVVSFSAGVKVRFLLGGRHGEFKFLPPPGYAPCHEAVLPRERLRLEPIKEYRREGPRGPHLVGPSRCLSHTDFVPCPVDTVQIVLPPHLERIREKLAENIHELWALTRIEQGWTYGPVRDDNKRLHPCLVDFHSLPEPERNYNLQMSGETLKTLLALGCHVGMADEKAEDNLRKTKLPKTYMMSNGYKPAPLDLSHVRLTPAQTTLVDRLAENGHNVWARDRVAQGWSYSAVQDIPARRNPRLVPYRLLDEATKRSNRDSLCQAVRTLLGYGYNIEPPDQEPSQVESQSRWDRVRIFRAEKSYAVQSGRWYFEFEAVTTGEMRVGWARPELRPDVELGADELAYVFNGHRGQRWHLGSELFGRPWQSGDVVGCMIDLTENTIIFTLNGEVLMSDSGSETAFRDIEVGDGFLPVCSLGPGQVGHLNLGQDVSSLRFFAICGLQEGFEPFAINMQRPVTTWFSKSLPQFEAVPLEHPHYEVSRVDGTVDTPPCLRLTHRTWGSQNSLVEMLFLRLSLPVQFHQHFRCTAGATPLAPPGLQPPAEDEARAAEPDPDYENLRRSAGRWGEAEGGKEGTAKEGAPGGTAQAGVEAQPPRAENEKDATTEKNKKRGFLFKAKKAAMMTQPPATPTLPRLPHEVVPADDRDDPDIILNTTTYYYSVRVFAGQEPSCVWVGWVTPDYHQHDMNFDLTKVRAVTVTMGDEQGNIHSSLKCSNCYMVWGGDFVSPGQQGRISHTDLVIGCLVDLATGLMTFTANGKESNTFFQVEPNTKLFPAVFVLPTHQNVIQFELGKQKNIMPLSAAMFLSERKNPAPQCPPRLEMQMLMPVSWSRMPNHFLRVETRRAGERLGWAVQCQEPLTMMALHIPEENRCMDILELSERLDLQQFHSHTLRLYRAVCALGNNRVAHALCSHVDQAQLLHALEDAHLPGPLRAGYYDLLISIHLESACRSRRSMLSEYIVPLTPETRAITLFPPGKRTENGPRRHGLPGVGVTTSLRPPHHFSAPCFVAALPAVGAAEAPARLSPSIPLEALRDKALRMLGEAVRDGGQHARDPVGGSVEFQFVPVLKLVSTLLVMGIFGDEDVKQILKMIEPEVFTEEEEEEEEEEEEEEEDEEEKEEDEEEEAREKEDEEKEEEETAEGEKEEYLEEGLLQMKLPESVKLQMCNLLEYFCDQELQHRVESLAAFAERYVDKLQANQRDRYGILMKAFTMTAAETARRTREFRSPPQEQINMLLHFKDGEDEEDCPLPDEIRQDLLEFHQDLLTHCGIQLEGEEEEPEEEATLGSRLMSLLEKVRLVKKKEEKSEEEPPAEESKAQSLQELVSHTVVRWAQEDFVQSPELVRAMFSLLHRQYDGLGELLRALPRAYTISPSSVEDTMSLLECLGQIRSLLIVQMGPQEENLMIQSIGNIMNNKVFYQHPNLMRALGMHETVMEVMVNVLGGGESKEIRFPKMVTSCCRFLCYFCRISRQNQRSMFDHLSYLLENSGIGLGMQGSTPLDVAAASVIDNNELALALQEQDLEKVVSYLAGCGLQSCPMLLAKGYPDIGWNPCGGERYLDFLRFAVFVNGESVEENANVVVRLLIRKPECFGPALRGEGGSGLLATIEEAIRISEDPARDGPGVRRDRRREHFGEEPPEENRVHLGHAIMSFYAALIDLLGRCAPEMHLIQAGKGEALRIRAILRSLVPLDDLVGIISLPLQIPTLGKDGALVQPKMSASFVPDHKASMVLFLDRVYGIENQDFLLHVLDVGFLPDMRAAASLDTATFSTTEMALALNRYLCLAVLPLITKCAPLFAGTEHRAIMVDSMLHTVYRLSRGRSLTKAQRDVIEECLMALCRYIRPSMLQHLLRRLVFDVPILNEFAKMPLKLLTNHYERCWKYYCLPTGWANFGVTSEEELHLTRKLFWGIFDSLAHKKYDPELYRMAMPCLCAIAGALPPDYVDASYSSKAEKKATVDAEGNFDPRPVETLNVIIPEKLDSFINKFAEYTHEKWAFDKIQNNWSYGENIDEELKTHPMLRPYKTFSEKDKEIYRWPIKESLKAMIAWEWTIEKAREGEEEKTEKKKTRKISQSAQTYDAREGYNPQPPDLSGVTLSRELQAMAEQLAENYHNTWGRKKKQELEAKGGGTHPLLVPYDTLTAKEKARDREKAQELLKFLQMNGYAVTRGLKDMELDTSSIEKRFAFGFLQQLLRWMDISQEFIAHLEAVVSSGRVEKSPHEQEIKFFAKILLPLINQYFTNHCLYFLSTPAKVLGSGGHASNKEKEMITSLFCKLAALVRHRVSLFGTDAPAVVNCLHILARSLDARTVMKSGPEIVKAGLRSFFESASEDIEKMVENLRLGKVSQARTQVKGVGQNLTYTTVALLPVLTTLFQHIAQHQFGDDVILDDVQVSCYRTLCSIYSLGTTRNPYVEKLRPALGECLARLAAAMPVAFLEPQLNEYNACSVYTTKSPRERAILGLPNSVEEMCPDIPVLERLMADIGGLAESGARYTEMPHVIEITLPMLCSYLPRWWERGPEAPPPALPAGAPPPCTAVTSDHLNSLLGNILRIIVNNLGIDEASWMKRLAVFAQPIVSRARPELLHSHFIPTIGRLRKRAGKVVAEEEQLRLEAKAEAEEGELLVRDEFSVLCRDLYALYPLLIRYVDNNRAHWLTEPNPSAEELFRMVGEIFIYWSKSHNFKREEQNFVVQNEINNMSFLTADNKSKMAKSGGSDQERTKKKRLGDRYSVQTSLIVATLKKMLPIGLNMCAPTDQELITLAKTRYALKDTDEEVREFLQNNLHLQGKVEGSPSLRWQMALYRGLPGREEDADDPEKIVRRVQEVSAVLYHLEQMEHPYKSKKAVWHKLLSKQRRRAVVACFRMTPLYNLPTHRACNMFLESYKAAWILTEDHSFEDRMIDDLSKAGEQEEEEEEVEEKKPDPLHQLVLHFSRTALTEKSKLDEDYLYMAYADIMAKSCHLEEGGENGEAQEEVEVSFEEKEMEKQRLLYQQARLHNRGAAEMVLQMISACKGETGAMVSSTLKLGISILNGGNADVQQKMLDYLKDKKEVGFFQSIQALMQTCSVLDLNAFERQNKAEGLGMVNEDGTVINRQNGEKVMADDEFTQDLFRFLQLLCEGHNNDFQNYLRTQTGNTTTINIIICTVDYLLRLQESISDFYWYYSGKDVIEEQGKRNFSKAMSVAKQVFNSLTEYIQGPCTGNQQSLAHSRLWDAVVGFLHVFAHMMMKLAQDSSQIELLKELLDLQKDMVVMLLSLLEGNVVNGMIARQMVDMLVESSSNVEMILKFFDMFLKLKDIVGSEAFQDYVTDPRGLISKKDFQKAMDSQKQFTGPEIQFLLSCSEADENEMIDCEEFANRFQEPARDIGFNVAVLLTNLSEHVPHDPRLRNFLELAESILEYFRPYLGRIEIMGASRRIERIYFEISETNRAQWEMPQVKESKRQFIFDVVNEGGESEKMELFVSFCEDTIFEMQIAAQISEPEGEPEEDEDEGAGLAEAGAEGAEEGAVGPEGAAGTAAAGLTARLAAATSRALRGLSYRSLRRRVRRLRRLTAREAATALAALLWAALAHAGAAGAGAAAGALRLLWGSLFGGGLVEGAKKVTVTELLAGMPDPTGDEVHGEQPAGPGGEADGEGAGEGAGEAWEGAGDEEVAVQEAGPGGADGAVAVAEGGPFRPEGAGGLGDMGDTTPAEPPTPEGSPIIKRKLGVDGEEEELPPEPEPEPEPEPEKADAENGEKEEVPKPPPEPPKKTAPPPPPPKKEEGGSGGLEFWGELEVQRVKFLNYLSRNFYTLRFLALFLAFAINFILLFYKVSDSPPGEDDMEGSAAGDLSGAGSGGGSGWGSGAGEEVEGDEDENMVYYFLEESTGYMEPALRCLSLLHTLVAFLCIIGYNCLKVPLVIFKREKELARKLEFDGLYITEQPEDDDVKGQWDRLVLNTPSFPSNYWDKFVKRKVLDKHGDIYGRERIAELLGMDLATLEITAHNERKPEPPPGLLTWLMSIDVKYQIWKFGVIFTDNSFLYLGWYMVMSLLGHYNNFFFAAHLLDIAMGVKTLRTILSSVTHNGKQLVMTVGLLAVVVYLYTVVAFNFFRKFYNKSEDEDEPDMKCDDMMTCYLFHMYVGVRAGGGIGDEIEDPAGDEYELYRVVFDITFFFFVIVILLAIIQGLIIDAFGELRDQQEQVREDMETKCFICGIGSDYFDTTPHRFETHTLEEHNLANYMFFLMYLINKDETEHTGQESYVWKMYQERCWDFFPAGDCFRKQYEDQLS

SMILES | Reduction of Ca2+ transient peak amplitude ([1]; 100 μM compound) | Effect on FRET (RyR1) | Reduction of Ca2+ transient peak amplitude ([1]; 1 μM compound) | Reduction of Ca2+ transient peak amplitude ([1]; 10 μM compound) | Hit in primary FLT-FRET HTS of LOPAC (FRET altered by > 4 SD vs DMSO) (RyR1; 10 μM compound, 2-hour incubation, 5 mM GSSG, 0.3 μM A-CaM, 1536-well)
Oc1c(Cl)cc(Cl)c2cccnc12 [chloroxine] | 14% | increased | – | – | –
O=c1c(O)c(-c2cc(O)c(O)c(O)c2)oc2cc(O)cc(O)c12 [myricetin] | – | increases FRET | 12% | 48% | identified; also recorded: increased the FRET efficiency readout

Reference: paper PMC7000700, “RyR1-targeted drug discovery pipeline integrating FRET-based high-throughput screening and human myofiber dynamic Ca^2+ assays” (Scientific Reports, 2020)
